Assay results: patent US9951028B2, “Agricultural chemicals” (REDAG CROP PROTECTION LTD, priority 2013, dated 2018)

Experiments:
Type in all cases: in vivo
[1] = test system: garden cress, Lepidium sativum; assay: Herbicidal efficacy screen, potter tower spray, necrosis assessed; details: 200 g/ha
Description: (§1) Compounds 22, 23 and 24 were screened for herbicidal efficacy against target plants: garden cress, Lepidium sativum, common chickweed, Stellaria media, and white mustard […] alba Plants were obtained as seeds and were grown to the 2-4 true leaf stage. Plants were grown under laboratory conditions, individually in seed trays. Each plant (in an approximately 3 cm diameter plug) was then detached from the tray for spraying. The compounds were screened at a range of five concentrations, diluted in acetone and TweenTM. A carrier only control was also conducted. Treatments were applied directly onto the plants, using a potter tower, at a specified application rate. One plant of each species was sprayed using a potter tower. The 3 different types of plants were placed on a 10 cm diameter platform directly beneath the potter sprayer and sprayed simultaneously. The growth of the plants and any Phytotoxicity effects were then assessed at intervals over 21 days, according to EPPO guideline PP1/135. Five replicas were performed for each treatment, for each species. In the tables below C represents a percentage increase in necrosis relative to the control of 0.1-50; B represents a percentage inhibition of 50-80; and A represents a percentage inhibition of 80-100.

[2] = test system: white mustard Sinapsis alba; assay: as above
Description: as §1

[3] = test system: Amaranthus retroflexus (redroot pigweed); assay: Herbicidal efficacy screen, corrected necrosis
Description: (§2) Plants were obtained as seeds and were grown to the 2-4 true leaf stage. Plants were grown under laboratory conditions, individually in seed trays. Each plant (in an approximately 3 cm diameter plug) was then detached from the tray for spraying. The compounds were screened at a range of five concentrations, diluted in acetone and Tween™. A carrier only control was also conducted. Treatments were applied directly onto the plants, using a potter tower, at a specified application rate. One plant of each species was sprayed using a potter tower. The 3 different types of plants were placed on a 10 cm diameter platform directly beneath the potter sprayer and sprayed simultaneously. The growth of the plants and any Phytotoxicity effects were then assessed at intervals over 21 days, according to EPPO guideline PP1/135. In the tables below C represents a percentage increase in necrosis relative to the control of 0.1-50; B represents a percentage inhibition of 50-80; and A represents a percentage inhibition of 80-100. Certain compounds of the invention were screened for herbicidal efficacy against target plants: Amaranthus retroflexus (redroot pigweed), Abutilon theophrasti (China Jute): Capsella bursa-pastoris, (shepherd's-purse) Echinochloa crus-galli, Hordeum vulgare (Barley),

[4] = test system: Abutilon theophrasti (China Jute); assay: Herbicidal efficacy screen, corrected necrosis
Description: as §2

[5] = test system: Capsella bursa-pastoris, (shepherd's-purse); assay: Herbicidal efficacy screen, corrected necrosis
Description: as §2

[6] = 12.5 g/ha, day 1 post application
[7] = 12.5 g/ha, day 7 post application
[8] = 25 g/ha, day 1 post application
[9] = 25 g/ha, day 7 post application
[10] = 50 g/ha, day 1 post application
[11] = 50 g/ha, day 7 post application
[12] = 100 g/ha, day 1 post application
[13] = 100 g/ha, day 7 post application
[14] = 6.25 g/ha, day 1 post application
[15] = 6.25 g/ha, day 7 post application

**Q.** Which Average of necrosis ([1]; day 5 post application) does the source give for `CC(C)C(C)S(=O)(=O)NCc1cc(-n2c(=O)cc(C(F)(F)F)n(C)c2=O)c(F)cc1Cl` (centres unmarked) [Compound 24, N-[[2-Chloro-4-fluoro-5-[3-methyl-2,6-dioxo-4-(trifluoromethyl)pyrimidin-1-yl]phenyl]methyl]-3-methyl-butane-2-sulfonamide] here?
**A.** C (C represents a percentage increase in necrosis relative to the control of 0.1-50)

**Q.** And the Average of necrosis ([1]; day 7 post application)?
**A.** C (C represents a percentage increase in necrosis relative to the control of 0.1-50)

**Q.** What about the Average of necrosis ([1]; day 10 post application) of the same compound?
**A.** B (B represents a percentage inhibition of 50-80)

**Q.** And the Average of necrosis [2, 6]?
**A.** C (C represents a percentage increase in necrosis relative to the control of 0.1-50)

**Q.** And the Average of necrosis ([2]; 12.5 g/ha, day 2 post application)?
**A.** C (C represents a percentage increase in necrosis relative to the control of 0.1-50)

**Q.** What about the Average of necrosis ([2]; 12.5 g/ha, day 3 post application) of the same compound?
**A.** C (C represents a percentage increase in necrosis relative to the control of 0.1-50)

**Q.** And the Average of necrosis ([2]; 12.5 g/ha, day 4 post application)?
**A.** C (C represents a percentage increase in necrosis relative to the control of 0.1-50)

**Q.** And the Average of necrosis ([2]; 12.5 g/ha, day 5 post application)?
**A.** C (C represents a percentage increase in necrosis relative to the control of 0.1-50)

**Q.** What about the Average of necrosis [2, 7] of the same compound?
**A.** C (C represents a percentage increase in necrosis relative to the control of 0.1-50)

**Q.** And the Average of necrosis ([2]; 12.5 g/ha, day 10 post application)?
**A.** C (C represents a percentage increase in necrosis relative to the control of 0.1-50)

**Q.** What about the Average of necrosis [2, 8] of the same compound?
**A.** C (C represents a percentage increase in necrosis relative to the control of 0.1-50)

**Q.** And the Average of necrosis ([2]; 25 g/ha, day 2 post application)?
**A.** C (C represents a percentage increase in necrosis relative to the control of 0.1-50)

**Q.** And the Average of necrosis ([2]; 25 g/ha, day 3 post application)?
**A.** C (C represents a percentage increase in necrosis relative to the control of 0.1-50)

**Q.** What about the Average of necrosis ([2]; 25 g/ha, day 4 post application) of the same compound?
**A.** C (C represents a percentage increase in necrosis relative to the control of 0.1-50)

**Q.** And the Average of necrosis ([2]; 25 g/ha, day 5 post application)?
**A.** C (C represents a percentage increase in necrosis relative to the control of 0.1-50)

**Q.** What about the Average of necrosis [2, 9] of the same compound?
**A.** C (C represents a percentage increase in necrosis relative to the control of 0.1-50)

**Q.** And the Average of necrosis ([2]; 25 g/ha, day 10 post application)?
**A.** C (C represents a percentage increase in necrosis relative to the control of 0.1-50)

**Q.** And the Average of necrosis [2, 10]?
**A.** C (C represents a percentage increase in necrosis relative to the control of 0.1-50)

**Q.** And the Average of necrosis ([2]; 50 g/ha, day 2 post application)?
**A.** C (C represents a percentage increase in necrosis relative to the control of 0.1-50)

**Q.** What about the Average of necrosis ([2]; 50 g/ha, day 3 post application) of the same compound?
**A.** C (C represents a percentage increase in necrosis relative to the control of 0.1-50)

**Q.** What about the Average of necrosis ([2]; 50 g/ha, day 4 post application) of the same compound?
**A.** C (C represents a percentage increase in necrosis relative to the control of 0.1-50)

**Q.** What about the Average of necrosis ([2]; 50 g/ha, day 5 post application) of the same compound?
**A.** C (C represents a percentage increase in necrosis relative to the control of 0.1-50)

**Q.** And the Average of necrosis [2, 11]?
**A.** C (C represents a percentage increase in necrosis relative to the control of 0.1-50)

**Q.** And the Average of necrosis ([2]; 50 g/ha, day 10 post application)?
**A.** C (C represents a percentage increase in necrosis relative to the control of 0.1-50)

**Q.** And the Average of necrosis [2, 12]?
**A.** C (C represents a percentage increase in necrosis relative to the control of 0.1-50)

**Q.** And the Average of necrosis ([2]; 100 g/ha, day 2 post application)?
**A.** C (C represents a percentage increase in necrosis relative to the control of 0.1-50)

**Q.** What about the Average of necrosis ([2]; 100 g/ha, day 3 post application) of the same compound?
**A.** C (C represents a percentage increase in necrosis relative to the control of 0.1-50)

**Q.** And the Average of necrosis ([2]; 100 g/ha, day 4 post application)?
**A.** C (C represents a percentage increase in necrosis relative to the control of 0.1-50)

**Q.** What about the Average of necrosis ([2]; 100 g/ha, day 5 post application) of the same compound?
**A.** C (C represents a percentage increase in necrosis relative to the control of 0.1-50)

**Q.** What about the Average of necrosis [2, 13] of the same compound?
**A.** C (C represents a percentage increase in necrosis relative to the control of 0.1-50)

**Q.** And the Average of necrosis ([2]; 100 g/ha, day 10 post application)?
**A.** C (C represents a percentage increase in necrosis relative to the control of 0.1-50)

**Q.** What about the Average of necrosis ([2]; 200 g/ha, day 1 post application) of the same compound?
**A.** C (C represents a percentage increase in necrosis relative to the control of 0.1-50)

**Q.** What about the Average of necrosis ([2]; 200 g/ha, day 2 post application) of the same compound?
**A.** C (C represents a percentage increase in necrosis relative to the control of 0.1-50)

**Q.** What about the Average of necrosis ([2]; 200 g/ha, day 3 post application) of the same compound?
**A.** C (C represents a percentage increase in necrosis relative to the control of 0.1-50)

**Q.** And the Average of necrosis ([2]; 200 g/ha, day 4 post application)?
**A.** C (C represents a percentage increase in necrosis relative to the control of 0.1-50)

**Q.** What about the Average of necrosis ([2]; 200 g/ha, day 5 post application) of the same compound?
**A.** C (C represents a percentage increase in necrosis relative to the control of 0.1-50)

**Q.** What about the Average of necrosis ([2]; 200 g/ha, day 7 post application) of the same compound?
**A.** C (C represents a percentage increase in necrosis relative to the control of 0.1-50)

**Q.** What about the Average of necrosis ([2]; 200 g/ha, day 10 post application) of the same compound?
**A.** C (C represents a percentage increase in necrosis relative to the control of 0.1-50)

**Q.** And the “Average of corrected necrosis” value [3, 14]?
**A.** C (C represents a percentage increase in necrosis relative to the control of 0.1-50)

**Q.** And the “Average of corrected necrosis” value [3, 15]?
**A.** A (A represents a percentage inhibition of 80-100)

**Q.** And the “Average of corrected necrosis” value [3, 6]?
**A.** C (C represents a percentage increase in necrosis relative to the control of 0.1-50)

**Q.** What about the “Average of corrected necrosis” value [3, 7] of the same compound?
**A.** A (A represents a percentage inhibition of 80-100)

**Q.** What about the “Average of corrected necrosis” value [3, 8] of the same compound?
**A.** C (C represents a percentage increase in necrosis relative to the control of 0.1-50)

**Q.** And the “Average of corrected necrosis” value [3, 9]?
**A.** A (A represents a percentage inhibition of 80-100)

**Q.** What about the “Average of corrected necrosis” value [3, 10] of the same compound?
**A.** C (C represents a percentage increase in necrosis relative to the control of 0.1-50)

**Q.** What about the “Average of corrected necrosis” value [3, 11] of the same compound?
**A.** A (A represents a percentage inhibition of 80-100)

**Q.** What about the “Average of corrected necrosis” value [3, 12] of the same compound?
**A.** C (C represents a percentage increase in necrosis relative to the control of 0.1-50)

**Q.** And the “Average of corrected necrosis” value [3, 13]?
**A.** A (A represents a percentage inhibition of 80-100)

**Q.** And the “Average of corrected necrosis” value [4, 14]?
**A.** 0%

**Q.** What about the “Average of corrected necrosis” value [4, 15] of the same compound?
**A.** A (A represents a percentage inhibition of 80-100)

**Q.** And the “Average of corrected necrosis” value [4, 6]?
**A.** 0%

**Q.** What about the “Average of corrected necrosis” value [4, 7] of the same compound?
**A.** A (A represents a percentage inhibition of 80-100)

**Q.** What about the “Average of corrected necrosis” value [4, 8] of the same compound?
**A.** 0%

**Q.** And the “Average of corrected necrosis” value [4, 9]?
**A.** A (A represents a percentage inhibition of 80-100)

**Q.** What about the “Average of corrected necrosis” value [4, 10] of the same compound?
**A.** 0%

**Q.** What about the “Average of corrected necrosis” value [4, 11] of the same compound?
**A.** A (A represents a percentage inhibition of 80-100)

**Q.** And the “Average of corrected necrosis” value [4, 12]?
**A.** C (C represents a percentage increase in necrosis relative to the control of 0.1-50)

**Q.** What about the “Average of corrected necrosis” value [4, 13] of the same compound?
**A.** A (A represents a percentage inhibition of 80-100)

**Q.** And the “Average of corrected necrosis” value [5, 14]?
**A.** C (C represents a percentage increase in necrosis relative to the control of 0.1-50)

**Q.** What about the “Average of corrected necrosis” value [5, 15] of the same compound?
**A.** A (A represents a percentage inhibition of 80-100)

**Q.** And the “Average of corrected necrosis” value [5, 6]?
**A.** 0%

**Q.** And the “Average of corrected necrosis” value [5, 7]?
**A.** B (B represents a percentage inhibition of 50-80)

**Q.** What about the “Average of corrected necrosis” value [5, 8] of the same compound?
**A.** C (C represents a percentage increase in necrosis relative to the control of 0.1-50)

**Q.** What about the “Average of corrected necrosis” value [5, 9] of the same compound?
**A.** A (A represents a percentage inhibition of 80-100)

**Q.** And the “Average of corrected necrosis” value [5, 10]?
**A.** C (C represents a percentage increase in necrosis relative to the control of 0.1-50)

**Q.** And the “Average of corrected necrosis” value [5, 11]?
**A.** A (A represents a percentage inhibition of 80-100)

**Q.** What about the “Average of corrected necrosis” value [5, 12] of the same compound?
**A.** C (C represents a percentage increase in necrosis relative to the control of 0.1-50)

**Q.** What about the “Average of corrected necrosis” value [5, 13] of the same compound?
**A.** A (A represents a percentage inhibition of 80-100)
